# In patent US8716242B2, “β-hairpin peptidomimetics” (priority 2009, dated 2014):
# Numbered stars: 1 amine (or outer) side, 2 acyl side, 3 side chain; on linkers, the order of the positions; unused ones are H or OH. Bridge positions count the residues as written; N and C are the ends. Square brackets hold non-standard residues; d marks the D form. Side chains are listed from the residue outwards. Peptide text beside a SMILES is read from it. * marks the point of attachment. γGlu = O=C(O)[C@H](CCC(=O)[*:2])N[*:1]; Palmitoyl = CCCCCCCCCCCCCCCC(=O)*; Myristoyl = CCCCCCCCCCCCCC(=O)*; Dab = NCC[C@H](N)C(=O)O
# Tests used:
# [1] = molecular target: T1, human CXCR4 (Homo sapiens, UniProt P61073); experiment: Ca2+-assay: CXCR4-antagonizing activity (SDF-1 induced calcium mobilization); type: cell-based; conditions: mouse pre-B cell line 300-19 transfected with human CXCR4; SDF-1 induced Ca2+ mobilization; read-out: IC50% [nM] ± SD, CXCR4 receptor
# T1 construct: expressed in transfected cells; host or cells: mouse pre-B cell line 300-19
# In short: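 Mouse pre-B 300-19 cells stably expressing human CXCR4, loaded with Calcium 4 dye in HBSS/20 mM HEPES pH 7.4/0.1% BSA for 1 h at RT. Peptides added before SDF-1; fluorescence (ex 485/em 525 nm) followed for 90 s. IC50 from four-parameter logistic fit of % maximal SDF-1 response.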
# [2] = in vivo; parameters: species or system male CD-1 mice; conditions: for bioavailability / AUC(0-inf) / Cmax / Tmax / half-life / level at 0.083 h / level at 0.25 h / level at 0.5 h / level at 1 h / level at 2 h / level at 4 h / level at 8 h / level at 12 h / level at 24 h: male, CD-1, mouse; for AUC0-∞ dcor. / Cmax dcor.: mouse
# Procedure: 2.7. Pharmacokinetic Study (PK)
# Pharmacokinetic study after intravenous (i.v.) and subcutaneous (s.c.) administration was performed for the compounds of Ex. 17, Ex. 20, Ex. 25, Ex. 26, Ex. 28, and Ex. 29. […] The compounds of Ex. 17, Ex. 25, Ex. 26, Ex. 28, and Ex. 29 were administered i.v. and s.c. as a cassette whereas for the compound of Ex. 20a single i.v. and s.c. administration was accomplished.
# 30 grams (±20%) male CD-1 mice obtained from Janvier, France, were used in the study testing the cassette compounds. The vehicle, phosphate buffered saline containing 5% DMSO, was added to give a final concentration of 0.5 mg/mL of the compounds (i.v. route and s.c. route). The volume was 2 mL/kg i.v. and 10 mL/kg s.c. and the cassette compounds were injected to give a final intravenous dose of 1 mg/kg and an subcutaneous dose of 5 mg/kg. Approximately 500 μL of blood were removed from the opened heart at predetermined time intervals (5, 15, 30 min and 1, 2, 4, 8 and 12 hours for the i.v. study and 5, 15, 30 min and 1, 2, 4, 8, 12 and 24 hours for the s.c. study) and added to heparinized tubes. Plasma was removed from pelleted cells upon centrifugation and frozen at −80° C. prior to HPLC-MS analysis. For the compound of Ex. 20 30 grams (±20%) male CD-1 mice obtained from Charles River Laboratories Deutschland GmbH were used. The vehicle, phosphate buffered saline, was added to give a final concentration of 0.2 mg/mL of the compound (i.v. route) and 1 mg/mL (s.c. route). The volume was 5 mL/kg i.v. and s.c. and the compound was injected to give a final intravenous dose of 1 mg/kg and an subcutaneous dose of 5 mg/kg. Approximately 300-400 μL of blood was removed under light isoflurane anesthesia by cardiac puncture at predetermined time intervals (5, 15, 30 min and 1, 2, 3, 4, 6, 12 hours for the i.v. study and 15, min and 1, 2, 4, 6, 8, 12 and 24 hours for the s.c. study) and added to heparinized tubes. Plasma was removed from pelleted cells upon centrifugation and frozen at −80° C. prior to HPLC-MS analysis.
# Preparation of the Plasma Calibration Samples
# “Blank” mouse plasma from untreated animals was used. Aliquots of plasma of 0.2 mL each were spiked with 50 ng of propranolol (Internal Standard, IS), (sample preparation by solid phase extraction on OASIS® HLB cartridges [Waters]) and with known amounts of Ex. 20 in order to obtain 9 plasma calibration samples in the range 10-5000 nM. The OASIS® HLB cartridges were conditioned with 1 mL of methanol and then with 1 mL of 1% NH3 in water. Samples were then diluted with 700 μL of 1% NH3 in water and loaded. The plate was washed with 1 mL of methanol/1% NH3 in water 5/95 (v/v). Elution was performed using 1 mL of 0.1% TFA in methanol.
# The plate containing eluates was introduced into the concentrator system and taken to dryness. The residues were dissolved in 100 μL of formic acid 0.1%/acetonitrile, 95/5 (v/v) and analysed in the HPLC/MS on a reverse phase analytical column (Jupiter C18, 50×2.0 mm, 5 μm, Phenomenex), using gradient elution (mobile phases A: 0.1% formic acid in water, B: acetonitrile; from 5% B to 100% B in 2 min.).
# Preparation of Plasma Samples
# Samples coming from animal treatments were pooled in order to obtain an appropriate volume for the extraction. If the total volume obtained was less than 0.2 mL the appropriate amount of “blank” mouse plasma was added in order to keep the matrix identical to the calibration curve. Samples were than spiked with IS and processed as described for the calibration curve.
# Pharmacokinetic Evaluation
# In order to perform PK analysis pooled plasma data (n=3 mice) was used. PK parameters were calculated by WinNonLin™ software version 5.2.1 (Pharsight—A Certara™ Company, Mountain View, Calif. 94041 USA) using non-compartmental analysis with a linear up/log down trapezoidal calculation method. For the terminal elimination phase at least 3 time points and a correlation coefficient greater than 0.85 was used. […]
# T1 sequence (P61073 whole entry): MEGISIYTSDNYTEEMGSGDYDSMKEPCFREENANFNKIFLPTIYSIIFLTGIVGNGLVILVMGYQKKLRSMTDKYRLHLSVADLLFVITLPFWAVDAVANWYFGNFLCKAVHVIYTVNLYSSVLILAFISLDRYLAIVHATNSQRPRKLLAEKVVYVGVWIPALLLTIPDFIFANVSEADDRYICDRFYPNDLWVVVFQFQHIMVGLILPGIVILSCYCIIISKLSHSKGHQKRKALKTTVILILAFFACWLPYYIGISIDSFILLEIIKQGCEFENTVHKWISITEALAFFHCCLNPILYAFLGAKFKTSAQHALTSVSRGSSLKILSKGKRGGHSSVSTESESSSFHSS
compound,measurement,setting,value
CCCCCCCCCCCCCC(=O)N[C@@H](CCC(=O)NCCCC[C@@H]1NC(=O)[C@H](Cc2ccc(O)cc2)NC(=O)[C@@H]2CSSC[C@H](NC(=O)[C@H](Cc3ccc(O)cc3)NC(=O)[C@H](Cc3c[nH]cn3)NC(=O)[C@H](Cc3ccc(O)cc3)NC(=O)[C@@H]3CCCN3C(=O)[C@H]3CCCN3C(=O)[C@H](CCCCN)NC1=O)C(=O)N[C@@H](CO)C(=O)N[C@@H](C)C(=O)N1CCC[C@@H]1C(=O)N[C@@H](CCN)C(=O)N[C@@H](CCCNC(=N)N)C(=O)N[C@@H](Cc1ccc(O)cc1)C(=O)N2)C(=O)O [Ex. 28] (cyclo(YHYCSA[dP][Dab]RYCYK([γGlu-Myristoyl])K[dP]P); disulfide 4-11),IC50,[1],2.1 ± 0.1 nM
same,bioavailability,[2],150%
same,AUC(0-inf),"[2]; iv, 1 mg/kg",3430 ng·h/mL
same,Cmax,"[2]; iv, 1 mg/kg",2820 ng/mL
same,Tmax,"[2]; iv, 1 mg/kg",0.1 h
same,half-life,"[2]; iv, 1 mg/kg",3.2 h
same,level at 0.083 h,"[2]; iv, 1 mg/kg",2820 ng/mL
same,level at 0.25 h,"[2]; iv, 1 mg/kg",2120 ng/mL
same,level at 0.5 h,"[2]; iv, 1 mg/kg",2030 ng/mL
same,level at 1 h,"[2]; iv, 1 mg/kg",1670 ng/mL
same,level at 2 h,"[2]; iv, 1 mg/kg",114 ng/mL
same,level at 4 h,"[2]; iv, 1 mg/kg",148 ng/mL
same,level at 8 h,"[2]; iv, 1 mg/kg",34 ng/mL
same,level at 12 h,"[2]; iv, 1 mg/kg",17 ng/mL
same,AUC(0-inf),"[2]; sc, 5 mg/kg",25700 ng·h/mL
same,Cmax,"[2]; sc, 5 mg/kg",1900 ng/mL
same,Tmax,"[2]; sc, 5 mg/kg",8 h
same,half-life,"[2]; sc, 5 mg/kg",4.3 h
same,level at 0.25 h,"[2]; sc, 5 mg/kg",16 ng/mL
same,level at 0.5 h,"[2]; sc, 5 mg/kg",73 ng/mL
same,level at 1 h,"[2]; sc, 5 mg/kg",232 ng/mL
same,level at 2 h,"[2]; sc, 5 mg/kg",1520 ng/mL
same,level at 4 h,"[2]; sc, 5 mg/kg",1270 ng/mL
same,level at 8 h,"[2]; sc, 5 mg/kg",1900 ng/mL
same,level at 12 h,"[2]; sc, 5 mg/kg",1610 ng/mL
same,level at 24 h,"[2]; sc, 5 mg/kg",164 ng/mL
same,AUC0-∞ dcor.,"[2]; iv, 1 mg/kg",3430.8 kg·ng·h/mg/mL
same,Cmax dcor.,"[2]; iv, 1 mg/kg",2817.0 kg·ng/mg/mL
same,AUC0-∞ dcor.,"[2]; sc, 5 mg/kg",5137.4 kg·ng·h/mg/mL
same,Cmax dcor.,"[2]; sc, 5 mg/kg",380.0 kg·ng/mg/mL
CCCCCCCCCCCCCCCC(=O)N[C@@H](CCC(=O)NCCCC[C@@H]1NC(=O)[C@H](Cc2ccc(O)cc2)NC(=O)[C@@H]2CSSC[C@H](NC(=O)[C@H](Cc3ccc(O)cc3)NC(=O)[C@H](Cc3c[nH]cn3)NC(=O)[C@H](Cc3ccc(O)cc3)NC(=O)[C@@H]3CCCN3C(=O)[C@H]3CCCN3C(=O)[C@H](CCCCN)NC1=O)C(=O)N[C@@H](CO)C(=O)N[C@@H](C)C(=O)N1CCC[C@@H]1C(=O)N[C@@H](CCN)C(=O)N[C@@H](CCCNC(=N)N)C(=O)N[C@@H](Cc1ccc(O)cc1)C(=O)N2)C(=O)O [Ex. 29] (cyclo(YHYCSA[dP][Dab]RYCYK([γGlu-Palmitoyl])K[dP]P); disulfide 4-11),IC50,[1],1.9 ± 0.8 nM
same,bioavailability,[2],151%
same,AUC(0-inf),"[2]; iv, 1 mg/kg",2940 ng·h/mL
same,Cmax,"[2]; iv, 1 mg/kg",2320 ng/mL
same,Tmax,"[2]; iv, 1 mg/kg",0.1 h
same,half-life,"[2]; iv, 1 mg/kg",3.6 h
same,level at 0.083 h,"[2]; iv, 1 mg/kg",2320 ng/mL
same,level at 0.25 h,"[2]; iv, 1 mg/kg",1820 ng/mL
same,level at 0.5 h,"[2]; iv, 1 mg/kg",1730 ng/mL
same,level at 1 h,"[2]; iv, 1 mg/kg",1500 ng/mL
same,level at 2 h,"[2]; iv, 1 mg/kg",87 ng/mL
same,level at 4 h,"[2]; iv, 1 mg/kg",114 ng/mL
same,level at 8 h,"[2]; iv, 1 mg/kg",35 ng/mL
same,level at 12 h,"[2]; iv, 1 mg/kg",16 ng/mL
same,AUC(0-inf),"[2]; sc, 5 mg/kg",22200 ng·h/mL
same,Cmax,"[2]; sc, 5 mg/kg",1600 ng/mL
same,Tmax,"[2]; sc, 5 mg/kg",8 h
same,half-life,"[2]; sc, 5 mg/kg",4.7 h
same,level at 0.25 h,"[2]; sc, 5 mg/kg",9 ng/mL
same,level at 0.5 h,"[2]; sc, 5 mg/kg",41 ng/mL
same,level at 1 h,"[2]; sc, 5 mg/kg",137 ng/mL
same,level at 2 h,"[2]; sc, 5 mg/kg",1050 ng/mL
same,level at 4 h,"[2]; sc, 5 mg/kg",958 ng/mL
same,level at 8 h,"[2]; sc, 5 mg/kg",1600 ng/mL
same,level at 12 h,"[2]; sc, 5 mg/kg",1430 ng/mL
same,level at 24 h,"[2]; sc, 5 mg/kg",175 ng/mL
same,AUC0-∞ dcor.,"[2]; iv, 1 mg/kg",2945.0 kg·ng·h/mg/mL
same,Cmax dcor.,"[2]; iv, 1 mg/kg",2317.0 kg·ng/mg/mL
same,AUC0-∞ dcor.,"[2]; sc, 5 mg/kg",4436.2 kg·ng·h/mg/mL
same,Cmax dcor.,"[2]; sc, 5 mg/kg",320.6 kg·ng/mg/mL
